Experimental data published in patent US20180037568A1, “MODULATORS OF METHYL MODIFYING ENZYMES, COMPOSITIONS AND USES THEREOF” (Constellation Pharmaceuticals, Inc., priority 2015, published 2018).
Read-outs that look alike come from different tables or passages of the source.

Key:
[1] = Plasma-tissue distribution and glucuronide formation in BALB/C mice; assay type: in vivo; conditions: mouse, male BALB/C mice, oral gavage 100 mg/kg, 1 hour after dosing
Protocol: 1 h after dosing a group of mice (3 mice/group) via oral gavage at 100 mg/kg of compound 21, blood is collected from the submandibular or saphenous vein (˜30 μL) and tissue is collected from the biceps femoris (both sides). After tissue preparation and homogenization, plasma and tissue samples are assayed for parent drug using LC/MS/MS methodologies with internal standard. The glucuronide metabolites (parent mass +176) are also monitored via LC/MS/MS and compared to the internal standard for quantitation.

[2] = Mean plasma and tumor concentration, 7-day study in SCID mice; assay type: in vivo; conditions: mouse, po, female SCID mice
PRC2 containing wt EZH2 = target: T1, PRC2 containing wt EZH2 (Homo sapiens, UniProt Q15910); experiment: EZH2 pep BSA Brij 4.0 LowE (IC50): 3H-SAM incorporation into biotinylated H3 peptide; assay type: biochemical; conditions: read-out: EZH2 pep BSA Brij 4.0 LowE (IC50); 20 pM PRC2 wt EZH2, 0.9 μM 3H-SAM, biotinylated H3 peptide substrate, 2 μM H3K27me3 activating peptide
T1 construct: made in house
In short: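 PRC2 (wt EZH2, 20 pM) pre-incubated 120 min with compound, 0.9 μM 3H-SAM and 2 μM H3K27me3 activating peptide in pH 8.5 Tris/DTT/Brij-35/0.1% BSA, 0.8% DMSO. Biotinylated H3K27me1 peptide added (2 μM stock), 5 h at room temperature, EDTA/SAH quench, streptavidin Flashplate capture. IC50 from four-parameter fit versus full-activity and no-enzyme controls.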

[3] = In vitro metabolism, dog liver microsomes; assay type: in vitro ADME; conditions: 10 μM compound, 0.7 mg protein/mL, read-out: intrinsic clearance
Protocol: (§1) The in vitro metabolism of compound 21 was evaluated by disappearance of compound in mouse, rat, dog and human liver microsomes at 10 μM compound concentration.
(§2) Data is expressed in μL/min/mg protein.

[4] = In vitro metabolism, rat liver microsomes; assay type: in vitro ADME; conditions: 10 μM compound, 0.7 mg protein/mL, read-out: intrinsic clearance
Protocol: as §1, §2

H3K27me3 mark = experiment: H3K27me3 Alpha Hela Assay (AlphaLISA); assay type: cell-based; conditions: Hela cells, 72 hrs; read-out: EZH2 Cell H3K27me3 Alpha HeLa (EC50 K27me3)
In short: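 HeLa cells at 1,000/well were treated with ten 3-fold compound doses for 72 h at 37 °C. After lysis and histone extraction, H3K27me3 was detected by AlphaLISA with anti-K27me3 acceptor beads, biotinylated anti-H3 (C-ter) antibody (3 nM final) and streptavidin donor beads (20 μg/mL final). Signals were normalized to DMSO and curve-fitted for EC50.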

[5] = In vitro metabolism, mouse liver microsomes; assay type: in vitro ADME; conditions: 10 μM compound, 0.7 mg protein/mL, read-out: intrinsic clearance
Protocol: as §1, §2

[6] = In vitro metabolism, human liver microsomes; assay type: in vitro ADME; conditions: 10 μM compound, 0.7 mg protein/mL, read-out: intrinsic clearance
Protocol: as §1, §2

T1 sequence (Q15910 whole entry): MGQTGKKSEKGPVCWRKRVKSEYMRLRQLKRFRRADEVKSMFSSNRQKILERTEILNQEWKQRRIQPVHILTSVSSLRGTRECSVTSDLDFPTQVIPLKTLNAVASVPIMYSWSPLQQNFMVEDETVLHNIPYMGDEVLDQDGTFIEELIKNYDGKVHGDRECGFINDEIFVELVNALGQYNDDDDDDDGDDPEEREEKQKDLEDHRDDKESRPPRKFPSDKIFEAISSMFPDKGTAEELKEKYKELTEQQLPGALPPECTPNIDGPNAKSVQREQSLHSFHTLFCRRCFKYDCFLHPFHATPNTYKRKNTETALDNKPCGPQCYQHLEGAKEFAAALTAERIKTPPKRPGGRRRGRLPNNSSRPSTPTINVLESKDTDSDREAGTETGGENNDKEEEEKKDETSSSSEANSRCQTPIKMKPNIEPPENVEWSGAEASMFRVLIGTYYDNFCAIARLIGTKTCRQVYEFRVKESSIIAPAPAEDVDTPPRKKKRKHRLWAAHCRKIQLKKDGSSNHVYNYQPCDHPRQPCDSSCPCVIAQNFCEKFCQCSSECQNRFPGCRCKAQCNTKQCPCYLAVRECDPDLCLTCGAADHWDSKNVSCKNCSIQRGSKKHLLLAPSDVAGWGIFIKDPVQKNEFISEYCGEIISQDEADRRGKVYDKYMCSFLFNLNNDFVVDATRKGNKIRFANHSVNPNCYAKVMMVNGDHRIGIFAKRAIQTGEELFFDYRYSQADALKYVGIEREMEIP
T1 sequence (O75530 whole entry partner): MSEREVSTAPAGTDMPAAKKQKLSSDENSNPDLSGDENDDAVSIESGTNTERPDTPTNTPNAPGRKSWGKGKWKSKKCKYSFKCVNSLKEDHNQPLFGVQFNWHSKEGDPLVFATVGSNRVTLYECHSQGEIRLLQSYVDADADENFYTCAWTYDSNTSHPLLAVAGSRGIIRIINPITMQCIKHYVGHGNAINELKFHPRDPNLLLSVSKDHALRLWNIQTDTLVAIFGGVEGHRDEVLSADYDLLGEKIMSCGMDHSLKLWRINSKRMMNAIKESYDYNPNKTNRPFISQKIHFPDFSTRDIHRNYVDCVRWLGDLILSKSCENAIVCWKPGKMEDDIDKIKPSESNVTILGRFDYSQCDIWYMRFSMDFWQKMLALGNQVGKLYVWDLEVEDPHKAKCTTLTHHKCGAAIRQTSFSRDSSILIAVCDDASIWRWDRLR
T1 sequence (Q15022 whole entry partner): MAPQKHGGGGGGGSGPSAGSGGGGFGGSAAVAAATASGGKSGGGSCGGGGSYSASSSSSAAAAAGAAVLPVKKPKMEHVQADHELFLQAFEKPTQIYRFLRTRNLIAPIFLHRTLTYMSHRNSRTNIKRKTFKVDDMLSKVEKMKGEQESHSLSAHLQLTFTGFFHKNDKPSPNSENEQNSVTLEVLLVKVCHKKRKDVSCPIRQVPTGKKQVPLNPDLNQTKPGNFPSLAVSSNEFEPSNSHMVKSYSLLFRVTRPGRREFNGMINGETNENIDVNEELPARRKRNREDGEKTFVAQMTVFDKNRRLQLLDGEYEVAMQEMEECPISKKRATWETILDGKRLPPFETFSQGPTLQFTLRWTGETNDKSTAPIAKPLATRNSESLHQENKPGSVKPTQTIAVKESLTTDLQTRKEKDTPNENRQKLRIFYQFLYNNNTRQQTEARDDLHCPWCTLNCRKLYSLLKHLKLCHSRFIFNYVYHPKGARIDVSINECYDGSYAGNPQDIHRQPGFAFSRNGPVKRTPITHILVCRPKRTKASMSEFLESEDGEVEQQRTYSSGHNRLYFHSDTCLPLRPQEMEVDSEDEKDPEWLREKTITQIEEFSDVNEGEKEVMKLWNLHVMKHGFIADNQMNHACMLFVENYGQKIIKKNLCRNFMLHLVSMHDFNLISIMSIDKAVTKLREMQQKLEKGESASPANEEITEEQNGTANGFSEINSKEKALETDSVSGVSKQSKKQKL
T1 sequence (Q09028 whole entry partner): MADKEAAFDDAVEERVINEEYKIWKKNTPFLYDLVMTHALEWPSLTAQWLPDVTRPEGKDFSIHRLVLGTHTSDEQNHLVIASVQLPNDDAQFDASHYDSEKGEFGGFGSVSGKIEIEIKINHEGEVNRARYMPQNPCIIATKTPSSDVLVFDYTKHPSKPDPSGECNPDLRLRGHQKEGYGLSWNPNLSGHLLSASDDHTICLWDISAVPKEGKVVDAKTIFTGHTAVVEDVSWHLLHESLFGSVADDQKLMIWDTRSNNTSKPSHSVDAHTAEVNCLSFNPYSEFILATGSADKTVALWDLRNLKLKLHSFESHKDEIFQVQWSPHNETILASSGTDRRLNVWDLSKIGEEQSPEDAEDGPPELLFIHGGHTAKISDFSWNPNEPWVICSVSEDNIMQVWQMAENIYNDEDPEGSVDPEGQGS
T1 sequence (Q6ZN18 whole entry partner): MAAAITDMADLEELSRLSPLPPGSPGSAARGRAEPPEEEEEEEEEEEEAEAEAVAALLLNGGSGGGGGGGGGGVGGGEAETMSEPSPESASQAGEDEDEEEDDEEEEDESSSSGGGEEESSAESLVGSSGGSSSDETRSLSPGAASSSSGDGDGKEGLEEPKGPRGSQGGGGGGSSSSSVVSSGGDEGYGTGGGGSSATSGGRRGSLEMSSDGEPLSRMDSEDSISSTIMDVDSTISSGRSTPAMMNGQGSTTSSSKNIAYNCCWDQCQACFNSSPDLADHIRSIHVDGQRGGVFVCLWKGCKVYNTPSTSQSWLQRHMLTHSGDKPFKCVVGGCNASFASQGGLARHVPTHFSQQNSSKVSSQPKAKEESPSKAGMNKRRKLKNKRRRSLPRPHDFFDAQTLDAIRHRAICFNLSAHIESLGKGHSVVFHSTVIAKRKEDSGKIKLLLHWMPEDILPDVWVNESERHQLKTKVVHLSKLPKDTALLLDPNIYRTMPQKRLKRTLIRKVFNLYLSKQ

SMILES: COc1cc(C)[nH]c(=O)c1CNC(=O)c1c(C)n(C(C)C2CCN(C)C(C(F)(F)F)C2)c2ccccc12 (single isomer, unassigned) [Compound 21, N-((4-methoxy-6-methyl-2-oxo-1,2-dihydropyridin-3-yl)methyl)-2-methyl-1-(1-(1-methyl-2-(trifluoromethyl)piperidin-4-yl)ethyl)-1H-indole-3-carboxamide]
- concentration at 1 h ([1]; muscle (biceps femoris), biceps femoris, read-out: Conc. in Muscle): 7240 ng/g
- Kp at 1 h ([1]; muscle/plasma, read-out: Ratio Muscle/Plasma): 0.86
- concentration at 1 h ([1]; plasma, read-out: Conc. in Plasma): 8370 ng/mL
- concentration at 7 day ([2]; plasma, 100 mg/kg P.O. BID, read-out: Mean Plasma Conc): 280 ng/mL
- concentration at 7 day ([2]; plasma, 200 mg/kg P.O. BID, read-out: Mean Plasma Conc): 1600 ng/mL
- concentration at 7 day ([2]; tumor, 100 mg/kg P.O. BID, read-out: Mean Tumor Conc): 451 ng/g
- concentration at 7 day ([2]; tumor, 200 mg/kg P.O. BID, read-out: Mean Tumor Conc): 693 ng/g
- IC50 (PRC2 containing wt EZH2): < 100 nM
- microsomal CLint at 10 μM [3]: 35 µL/min/mg
- microsomal CLint at 10 μM [4]: 35 µL/min/mg
- EC50 (H3K27me3 mark): < 400 nM
- microsomal CLint at 10 μM [5]: 55 µL/min/mg
- microsomal CLint at 10 μM [6]: 39 µL/min/mg
